# Source: patent US11999957B2, “Method for enhancing vanillin resistance of Saccharomyces cerevisiae by knocking out SNG1 gene” (QILU UNIVERSITY OF TECHNOLOGY, priority 2020, dated 2024)
# Legend:
# sng1Δ mutant [1] = experiment: Growth on YEPD plate containing vanillin (spot dilution test); type: cell-based, Saccharomyces cerevisiae; conditions: YEPD plate with 6 mmol/L of vanillin, 30° C., 1-3 days, sng1Δ mutant vs control strain
# Procedure: The sng1Δ mutant obtained above was cultured on a YEPD plate containing 6 mmol/L of vanillin to observe its growth status. Specifically, the sng1Δ mutant was inoculated to 1-2 mL of a liquid YEPD medium and cultured at 30° C. overnight to logarithmic growth phase. Then the mutant cells were transferred to 5 mL of fresh medium at an initial OD600 of 0.2, cultured overnight and centrifuged. The cells were collected, washed with 1 mL of sterile water three times and centrifuged at 8,000 r/min. The cells were again suspended with sterile water and placed at 30° C. for 9 h to prepare resting cells, and during the preparation, the medium was prepared, poured to a plate and naturally dried. The cell suspension was adjusted to OD600 of 1.0 and subjected to 10-fold serial dilution, and 4 μL of the suspension at each dilution was dropped on the plate, cultured at 30° C. for 1-3 days and photographed to observe the colony growth. The control strain was tested in the same way for the vanillin resistance.
# wild-type BY4741 strain = experiment: Shake-flask fermentation under vanillin stress (OD600 growth); type: cell-based, Saccharomyces cerevisiae; conditions: wild-type BY4741, SC medium containing 6 mmol/L of vanillin, 30° C., 200 rpm
# Procedure: (§1) A single colony of the sng1Δ mutant was picked, transferred to 1-2 mL of a SC medium and cultured at 30° C. and 200 rpm for about 24 h. The cell suspension was transferred to 20 mL of fresh medium at an initial OD600 of 0.2 and cultured at 30° C. and 200 rpm overnight to the mid log phase for secondary activation. Then the cell culture, at an initial OD600 of 0.2, was transferred to 40 mL of a SC medium containing 6 mmol/L of vanillin and cultured at 30° C. and 200 rpm under shaking, where the OD600 was regularly measured.
# (§2) The maximum specific growth rate was obtained by calculating a […] regression slope of ln(OD600) versus time in the logarithmic growth phase.
# Similarly, the specific consumption rate of vanillin in the wild-type BY4741 strain was calculated to be 0.035 g g^−1 h^−1 according to the above method (FIG. 4).
# sng1Δ mutant [2] = experiment: as above; type: cell-based, Saccharomyces cerevisiae
# Procedure: as §1, §2
# Saccharomyces cerevisiae = conditions: 0.9 g/L vanillin; extended from 2 hours without vanillin; cited from earlier work
smiles,measurement,setting,value
COc1cc(C=O)ccc1O [vanillin],growth status on plate under vanillin stress,sng1Δ mutant [1],superior growth status to the control strain
same,maximum specific growth rate,wild-type BY4741 strain,0.132 h⁻¹
same,maximum specific growth rate,"sng1Δ mutant [2]; sng1Δ mutant, SC medium containing 6 mmol/L of vanillin, aerobic, shaking, 30° C., 200 rpm",0.225 h⁻¹
same,improvement of maximum specific growth rate of sng1Δ mutant compared to the control strain,"sng1Δ mutant [2]; under vanillin stress (6 mmol/L), sng1Δ mutant vs BY4741",70%
same,delay period (lag) of growth,Saccharomyces cerevisiae,about 24 hours
